Results from patent US10870647B2, “Imidazopyridine derivative, method for preparing same, and pharmaceutical composition containing same as active ingredient for preventing or treating cancer” (DAEGU-GYEONGBUK MEDICAL INNOVATION FOUNDATION, priority 2016, dated 2020).

What was measured:
Assay in all cases: Kinase selectivity, scanMAX Kinase assay panel (DiscoverX), % control at 1 uM
Assay type in all cases: binding
[1] = target: T1, scanMAX Kinase assay panel (Homo sapiens, UniProt P00533, G719C); details: EGFR (G719C); 1 uM; read-out: Percent Control (%)
T1 construct: purchased DiscoverX
Outline: (§1)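 Binding across the scanMAX kinase panel was tested at 1 uM compound. % control = (compound − positive control)/(negative control − positive control) × 100; below 35 counted as active.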

[2] = target: T2, scanMAX Kinase assay panel (Homo sapiens, UniProt Q13554); details: CAMK2B; 1 uM; read-out: Percent Control (%)
T2 construct: purchased DiscoverX
T2 sequence (Q13554 whole entry): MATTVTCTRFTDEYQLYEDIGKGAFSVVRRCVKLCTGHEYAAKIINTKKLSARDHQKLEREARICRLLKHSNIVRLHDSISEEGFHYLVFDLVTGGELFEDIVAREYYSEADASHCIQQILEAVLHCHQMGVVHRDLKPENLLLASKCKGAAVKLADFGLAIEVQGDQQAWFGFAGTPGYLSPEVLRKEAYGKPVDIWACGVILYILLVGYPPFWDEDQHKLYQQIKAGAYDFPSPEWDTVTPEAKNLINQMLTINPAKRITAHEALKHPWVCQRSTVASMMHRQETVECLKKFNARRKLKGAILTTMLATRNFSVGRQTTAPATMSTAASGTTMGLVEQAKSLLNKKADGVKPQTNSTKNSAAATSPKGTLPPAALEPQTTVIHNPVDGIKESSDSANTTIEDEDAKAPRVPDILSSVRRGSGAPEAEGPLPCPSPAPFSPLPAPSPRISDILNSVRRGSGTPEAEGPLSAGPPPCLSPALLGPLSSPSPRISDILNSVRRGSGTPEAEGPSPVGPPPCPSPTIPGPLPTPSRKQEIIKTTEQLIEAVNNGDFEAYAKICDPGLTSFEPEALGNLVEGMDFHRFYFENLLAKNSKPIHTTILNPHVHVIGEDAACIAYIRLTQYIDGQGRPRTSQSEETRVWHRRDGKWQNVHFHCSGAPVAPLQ
Outline: as §1

[3] = target: T3, scanMAX Kinase assay panel (Homo sapiens, UniProt P36894); details: BMPR1A; 1 uM; read-out: Percent Control (%)
T3 construct: purchased DiscoverX
T3 sequence (P36894 24-532): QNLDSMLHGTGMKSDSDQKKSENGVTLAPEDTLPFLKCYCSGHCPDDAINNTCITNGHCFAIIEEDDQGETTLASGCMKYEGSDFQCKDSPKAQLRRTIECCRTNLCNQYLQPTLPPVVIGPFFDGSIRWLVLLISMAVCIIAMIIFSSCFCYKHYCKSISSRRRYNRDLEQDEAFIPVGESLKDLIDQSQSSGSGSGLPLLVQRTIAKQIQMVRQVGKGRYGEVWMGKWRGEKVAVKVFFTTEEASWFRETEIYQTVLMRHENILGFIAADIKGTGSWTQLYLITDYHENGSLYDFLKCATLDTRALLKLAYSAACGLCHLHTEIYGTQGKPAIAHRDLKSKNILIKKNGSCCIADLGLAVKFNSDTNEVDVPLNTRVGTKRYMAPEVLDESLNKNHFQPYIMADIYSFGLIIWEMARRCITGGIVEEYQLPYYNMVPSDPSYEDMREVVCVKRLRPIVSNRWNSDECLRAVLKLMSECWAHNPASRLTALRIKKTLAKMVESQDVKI
Outline: as §1

[4] = target: T4, scanMAX Kinase assay panel (Homo sapiens, UniProt P78356); details: PIP5K2B; 1 uM; read-out: Percent Control (%)
T4 construct: purchased DiscoverX
T4 sequence (P78356 1-416): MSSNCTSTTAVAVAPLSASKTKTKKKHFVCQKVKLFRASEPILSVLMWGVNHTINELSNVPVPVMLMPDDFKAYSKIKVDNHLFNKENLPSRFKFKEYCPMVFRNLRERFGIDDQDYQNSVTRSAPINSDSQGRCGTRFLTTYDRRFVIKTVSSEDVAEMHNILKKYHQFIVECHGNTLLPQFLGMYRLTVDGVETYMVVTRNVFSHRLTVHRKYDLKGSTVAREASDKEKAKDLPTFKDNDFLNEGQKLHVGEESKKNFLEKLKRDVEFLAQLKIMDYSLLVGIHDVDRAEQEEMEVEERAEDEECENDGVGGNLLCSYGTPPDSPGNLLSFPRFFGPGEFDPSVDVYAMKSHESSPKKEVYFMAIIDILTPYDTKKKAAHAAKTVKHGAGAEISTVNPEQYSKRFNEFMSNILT
Outline: as §1

[5] = target: T5, scanMAX Kinase assay panel (Homo sapiens, UniProt Q15375); details: EPHA7; 1 uM; read-out: Percent Control (%)
T5 construct: purchased DiscoverX
Outline: as §1

[6] = target: T6, scanMAX Kinase assay panel (Homo sapiens, UniProt P37023); details: ACVRL1; 1 uM; read-out: Percent Control (%)
T6 construct: purchased DiscoverX
T6 sequence (P37023 22-503): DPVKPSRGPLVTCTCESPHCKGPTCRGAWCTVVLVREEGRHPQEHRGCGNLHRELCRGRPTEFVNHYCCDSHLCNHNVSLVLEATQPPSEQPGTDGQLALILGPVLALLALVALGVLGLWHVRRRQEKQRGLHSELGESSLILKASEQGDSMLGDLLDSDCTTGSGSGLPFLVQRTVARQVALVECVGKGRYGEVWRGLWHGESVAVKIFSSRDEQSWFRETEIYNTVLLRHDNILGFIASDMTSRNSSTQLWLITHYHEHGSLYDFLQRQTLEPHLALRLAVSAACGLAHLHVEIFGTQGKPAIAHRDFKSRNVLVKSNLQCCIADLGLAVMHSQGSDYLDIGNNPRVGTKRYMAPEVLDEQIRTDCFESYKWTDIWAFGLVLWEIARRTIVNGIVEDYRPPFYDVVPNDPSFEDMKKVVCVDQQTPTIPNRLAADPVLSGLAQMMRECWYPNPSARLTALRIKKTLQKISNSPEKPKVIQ
Outline: as §1

[7] = target: T7, scanMAX Kinase assay panel (Homo sapiens, UniProt Q9BX84); details: TRPM6; 1 uM; read-out: Percent Control (%)
T7 construct: purchased DiscoverX
T7 sequence (Q9BX84 whole entry): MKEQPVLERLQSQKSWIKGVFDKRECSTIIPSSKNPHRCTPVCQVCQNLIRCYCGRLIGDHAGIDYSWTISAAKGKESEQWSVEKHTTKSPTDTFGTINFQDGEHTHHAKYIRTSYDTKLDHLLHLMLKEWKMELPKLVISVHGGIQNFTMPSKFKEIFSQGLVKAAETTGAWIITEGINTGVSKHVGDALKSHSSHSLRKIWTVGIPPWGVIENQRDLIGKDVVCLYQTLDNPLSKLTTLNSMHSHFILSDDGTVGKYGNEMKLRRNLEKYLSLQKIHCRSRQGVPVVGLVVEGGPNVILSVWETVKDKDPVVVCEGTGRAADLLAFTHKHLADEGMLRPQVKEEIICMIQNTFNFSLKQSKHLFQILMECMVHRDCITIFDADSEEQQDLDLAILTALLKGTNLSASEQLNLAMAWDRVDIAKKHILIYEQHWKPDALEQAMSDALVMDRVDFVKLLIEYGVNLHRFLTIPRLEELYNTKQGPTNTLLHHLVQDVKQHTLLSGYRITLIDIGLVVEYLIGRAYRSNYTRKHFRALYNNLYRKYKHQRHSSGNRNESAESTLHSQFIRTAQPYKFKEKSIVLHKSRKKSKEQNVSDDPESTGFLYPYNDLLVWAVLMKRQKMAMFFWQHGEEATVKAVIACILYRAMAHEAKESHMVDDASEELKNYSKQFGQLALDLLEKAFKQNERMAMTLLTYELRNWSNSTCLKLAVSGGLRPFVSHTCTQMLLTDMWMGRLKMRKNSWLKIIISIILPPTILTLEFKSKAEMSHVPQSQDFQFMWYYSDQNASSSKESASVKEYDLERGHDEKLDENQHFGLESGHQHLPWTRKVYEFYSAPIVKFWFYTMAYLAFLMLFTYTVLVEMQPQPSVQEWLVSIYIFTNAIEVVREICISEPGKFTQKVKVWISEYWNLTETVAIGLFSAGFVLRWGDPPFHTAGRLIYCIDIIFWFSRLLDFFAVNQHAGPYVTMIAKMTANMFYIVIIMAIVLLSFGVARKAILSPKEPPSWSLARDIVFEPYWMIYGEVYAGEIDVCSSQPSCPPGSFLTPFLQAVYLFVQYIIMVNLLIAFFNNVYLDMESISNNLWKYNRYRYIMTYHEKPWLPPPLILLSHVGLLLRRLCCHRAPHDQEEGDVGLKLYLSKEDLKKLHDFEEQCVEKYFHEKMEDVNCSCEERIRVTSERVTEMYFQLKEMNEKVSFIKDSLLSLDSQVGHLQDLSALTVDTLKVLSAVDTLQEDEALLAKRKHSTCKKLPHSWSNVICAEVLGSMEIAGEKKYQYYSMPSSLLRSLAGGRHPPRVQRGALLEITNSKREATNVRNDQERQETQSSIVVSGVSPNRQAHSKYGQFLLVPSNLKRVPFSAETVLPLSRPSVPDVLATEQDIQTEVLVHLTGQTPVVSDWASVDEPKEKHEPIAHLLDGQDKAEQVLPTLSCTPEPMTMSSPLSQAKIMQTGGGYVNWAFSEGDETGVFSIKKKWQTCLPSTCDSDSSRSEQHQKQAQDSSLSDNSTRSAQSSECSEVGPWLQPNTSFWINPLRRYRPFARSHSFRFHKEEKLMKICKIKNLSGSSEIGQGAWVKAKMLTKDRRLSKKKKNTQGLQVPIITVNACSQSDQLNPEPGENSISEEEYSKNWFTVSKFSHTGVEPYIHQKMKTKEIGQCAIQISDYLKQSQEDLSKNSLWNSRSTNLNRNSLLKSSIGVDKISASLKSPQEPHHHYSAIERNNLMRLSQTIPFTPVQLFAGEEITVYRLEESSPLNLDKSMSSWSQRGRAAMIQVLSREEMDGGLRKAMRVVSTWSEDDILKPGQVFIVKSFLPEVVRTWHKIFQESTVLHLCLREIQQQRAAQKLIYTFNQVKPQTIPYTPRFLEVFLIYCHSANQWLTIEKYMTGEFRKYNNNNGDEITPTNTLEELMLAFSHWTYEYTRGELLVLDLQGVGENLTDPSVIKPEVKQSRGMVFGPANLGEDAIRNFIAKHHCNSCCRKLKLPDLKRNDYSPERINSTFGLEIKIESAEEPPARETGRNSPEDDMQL
Outline: as §1

[8] = target: T8, scanMAX Kinase assay panel (Homo sapiens, UniProt O00444); details: PLK4; 1 uM; read-out: Percent Control (%)
T8 construct: purchased DiscoverX
T8 sequence (O00444 1-970): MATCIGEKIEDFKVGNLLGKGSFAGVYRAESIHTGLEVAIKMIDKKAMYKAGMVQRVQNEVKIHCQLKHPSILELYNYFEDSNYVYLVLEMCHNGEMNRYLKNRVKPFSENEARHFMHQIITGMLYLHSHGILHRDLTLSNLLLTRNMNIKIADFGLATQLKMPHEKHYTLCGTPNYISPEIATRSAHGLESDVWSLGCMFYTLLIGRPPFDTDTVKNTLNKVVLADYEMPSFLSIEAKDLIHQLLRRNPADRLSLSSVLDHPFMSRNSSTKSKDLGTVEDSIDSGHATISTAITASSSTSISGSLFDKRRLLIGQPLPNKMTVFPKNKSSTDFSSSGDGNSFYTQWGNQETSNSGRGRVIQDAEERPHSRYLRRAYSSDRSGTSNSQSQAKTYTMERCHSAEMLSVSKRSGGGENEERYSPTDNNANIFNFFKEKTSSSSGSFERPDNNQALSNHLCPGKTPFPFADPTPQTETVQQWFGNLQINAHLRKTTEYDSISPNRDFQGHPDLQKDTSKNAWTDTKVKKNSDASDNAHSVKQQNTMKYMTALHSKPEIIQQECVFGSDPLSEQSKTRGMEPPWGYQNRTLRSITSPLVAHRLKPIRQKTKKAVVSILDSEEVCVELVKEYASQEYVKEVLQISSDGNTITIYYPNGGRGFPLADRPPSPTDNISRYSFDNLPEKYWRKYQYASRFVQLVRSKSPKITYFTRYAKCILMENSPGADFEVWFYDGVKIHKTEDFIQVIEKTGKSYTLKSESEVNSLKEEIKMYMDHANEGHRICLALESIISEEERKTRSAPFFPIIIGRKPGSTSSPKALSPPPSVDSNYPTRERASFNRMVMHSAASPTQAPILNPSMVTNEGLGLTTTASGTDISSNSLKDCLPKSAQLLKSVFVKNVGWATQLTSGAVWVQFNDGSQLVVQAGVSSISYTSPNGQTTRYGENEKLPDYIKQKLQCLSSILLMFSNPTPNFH
Outline: as §1

[9] = target: T9, scanMAX Kinase assay panel (Homo sapiens, UniProt Q13153); details: PAK1; 1 uM; read-out: Percent Control (%)
T9 construct: purchased DiscoverX
T9 sequence (Q13153 whole entry): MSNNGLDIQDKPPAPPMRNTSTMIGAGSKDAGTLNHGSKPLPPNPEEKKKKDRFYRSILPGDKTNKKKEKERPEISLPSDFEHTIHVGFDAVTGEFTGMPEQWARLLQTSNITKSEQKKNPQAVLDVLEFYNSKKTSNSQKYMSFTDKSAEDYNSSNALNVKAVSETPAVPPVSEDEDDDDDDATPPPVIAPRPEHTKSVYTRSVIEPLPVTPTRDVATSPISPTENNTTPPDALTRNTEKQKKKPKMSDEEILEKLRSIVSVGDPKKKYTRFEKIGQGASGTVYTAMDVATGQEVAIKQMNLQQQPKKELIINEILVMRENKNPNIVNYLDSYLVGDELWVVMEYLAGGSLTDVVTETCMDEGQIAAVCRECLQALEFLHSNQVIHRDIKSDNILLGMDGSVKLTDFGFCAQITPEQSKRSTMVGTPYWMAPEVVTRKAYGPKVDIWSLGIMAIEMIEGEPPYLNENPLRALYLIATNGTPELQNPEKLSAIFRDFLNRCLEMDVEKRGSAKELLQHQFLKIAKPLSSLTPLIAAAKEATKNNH
Outline: as §1

Structure (SMILES) | remaining binding at 1 µM [1] | remaining binding at 1 µM [2] | remaining binding at 1 µM [3] | remaining binding at 1 µM [4] | remaining binding at 1 µM [5] | remaining binding at 1 µM [6] | remaining binding at 1 µM [7] | remaining binding at 1 µM [8] | remaining binding at 1 µM [9]
Cc1ccc(C(=O)Nc2ccc(CN3CCN(C)CC3)c(C(F)(F)F)c2)cc1C#Cc1cnc2c(Nc3cnn(C)c3)cccn12 [Example 1, 4-methyl-3-((8-((1-methyl-1H-pyrazol-4-yl)amino)imidazo[1,2-a]pyridin-3-yl)ethynyl)-N-(4-((4-methylpiperazin-1-yl)methyl)-3-(trifluoromethyl)phenyl)benzamide] | 1% | 76% | 77% | 82% | 5% | 99% | 100% | 79% | 89%
Cc1cn(-c2cc(NC(=O)c3ccc(C)c(C#Cc4cnc5c(Nc6cnn(C)c6)cccn45)c3)cc(C(F)(F)F)c2)cn1 [Example 12, 4-methyl-N-(3-(4-methyl-1H-imidazol-1-yl)-5-(trifluoromethyl)phenyl)-3-((8-((1-methyl-1H-pyrazol-4-yl)amino)imidazo[1,2-a]pyridin-3-yl)ethynyl)benzamide] | 21% | 96% | 60% | 100% | 69% | 99% | 87% | 85% | 87%
Cc1ccc(NC(=O)C2(C(=O)Nc3ccc(F)cc3)CC2)cc1C#Cc1cnc2c(Nc3cnn(C(C)C)c3)cccn12 [Example 78] | 97% | 100% | 94% | 79% | 100% | 100% | 87% | 100% | 100%
